Source: article PMC11487604, “Selective, Intrinsically Fluorescent Trk Modulating Probes” (ACS Chemical Neuroscience, 2024)
Read-outs that look alike come from different tables or passages of the source. *1 amine or outer side, *2 acyl side, *3 side chain or, on linkers, in order; H or OH if unused. Where a SMILES comes first, the peptide text is derived from it. Bridges are numbered along the chain shown (N, C = ends). X1 = COc1ccc(C2=C3C=C(S(=O)(=O)O)C([*:2])=[N+]3[B-](F)(F)n3c2cc(S(=O)(=O)O)c3[*:1])cc1; X2 = COc1ccc(C2=C3C=C(S(=O)(=O)O)C([*:1])=[N+]3[B-](F)(F)n3c2cc(S(=O)(=O)O)c3[*:2])cc1

How the values were obtained:
TrkB (HEK293-TrkB cells) = target: T1, TrkB (HEK293-TrkB cells) (Homo sapiens, UniProt Q16620); test: Cell-surface fluorescence binding to live HEK293-TrkB cells; conditions: HEK293-TrkB minus HEK293 wild-type fluorescence, 2.5 h
T1 construct: expressed in transfected cells; host or cells: HEK293
Text: Binding of the selective, intrinsically fluorescent mimics to cells can be observed and quantitated via fluorescence. Raw data includes fluorescence associated with material not removed in the washing step (sticky, nonselective binding), and if there were binding to any receptors other than Trk, then fluorescence would be observed for this too. In a second experiment, fluorescence associated with the wild-type cells without Trk expression was similarly recorded to provide a baseline correction representative of that nonselective binding, plus affinity to non-Trk receptors if that occurred. Consequently, fluorescence observed in the noncompetitive experiment minus that in the one using Trk-negative cell lines represents a minimum associated with binding to the expressed Trk receptor. […]
Trk-positive transfected cell lines (HeLa-TrkA, HEK293-TrkB, and NIH3T3-TrkC) and Trk-negative cell lines (HeLa, HEK293, and NIH3T3) were seeded at a density of 2 × 10^3 cells/well in 96-well plates and incubated for 24 h to allow them to adhere. […] Cell associated fluorescence was then determined by measuring emission of the resulting solution on a plate reader (BioTek Synergy H4 Hybrid Reader), λex (540/25 nm) and λem (620/40 nm). […]

[1] = target: TrkB-expressing cells (HEK+B) (UniProt Q16620); test: Cell survival assay in serum-free media, TrkB-expressing cells (HEK+B); type: cell-based; conditions: normalized to DMSO (0%) and 1.0 nM BDNF (100%)
Description: Loop mimics 5 were screened in cell survival assays to evaluate their efficacy in stimulating Trk receptors (Figure 2). Mimics were assayed for the ability to rescue cells from cell death when incubated in serum-free media (SFM) in the absence of NTs (a test for “agonism”) or in the presence of a suboptimal NT concentration (a test for NT “modulation”). Simultaneously, these assays may confirm test mimics are not cytotoxic at lower doses (though cytotoxicity assays were also performed up to higher doses, Figure S1). […] All the test compounds were screened at 50 μM concentrations initially, and then, dose response curves were measured for the hits (Table 1 and Figure 3).
We were forced to use transfectants in different cell lines (HeLa, HEK-293, NIH-3T3 expressing TrkA, B, and C, respectively) due to difficulties in obtaining transfected cells derived from a single wild type; however, none of the cells used express TrkA-C prior to transfection. Throughout this paper, HeLa cells are denoted as “HeLa”, and their TrkA transfectants are “HeLa+A”. Similarly, HEK-293 cells are “HEK”; their TrkB transfectants are HEK+B. NIH-3T3 cells are “NIH”, and their TrkC transfectants are “NIH+C”.
Cells were seeded at a density of 2 × 10^3 cells/well in complete media in 96-well plates and incubated for 24 h to allow cells to adhere. Cells were washed with DPBS, and then, media were swapped for serum-free media of the same type as the complete media. Cells were then treated with 50 μM compound either alone or in conjunction with suboptimal neurotrophin corresponding to the Trk receptor expressed for 48 h. Cells were washed with DPBS buffer twice and detached from the plate with 50 μL of trypsin for 3 min at 37 °C. Trypsinization was quenched with 100 μL of complete media. Cells were suspended and live cells counted using flow cytometry (CytoFLEX LX). Cell survival was normalized from cell count (CC) readings relative to optimal neurotrophin (NT = 100%) and DMSO (0%) utilizing GraphPad Prism 10.2, followed by statistical analysis via one-way ANOVA and Dunnett’s t test compared to the DMSO control. Dose response versions of this assay were conducted following the same procedure, but the data was analyzed in GraphPad Prism 10.2 using the nonlinear fit: {agonist} vs response – variable slope (four parameters) function.

pAKT in NIH+C cells = test: ELFI, pAKT signaling in NIH+C cells, competition with NT; type: cell-based; conditions: competed with 10 ng/mL NT, 1 h
Description: (§1) Throughout, the positive control was concentration-dependent treatment with the parent NT in half-log dilutions from 100 ng/mL to 0.1 ng/mL, and the negative control was to treat the cells with only DMSO. We first determined Z′ factors[83] based on these boundary controls. Once the assays had been validated (Z′ > 0.5), we determined optimal times to fix cells after treatment (taking into account potential differences in the kinetics of Trk activation between small molecules and neurotrophins), mimicked dose ranges, and then performed dose response studies.
(§2) Assays were conducted as previously reported.[36] Trk-positive cells (PC12, HEK293-TrkB, and NIH3T3-TrkC) were seeded at a density of 2 × 10^4 cells per well in poly-D-lysine (PDL)-coated 96-well white flat-bottomed plates and allowed to adhere for 24 h. Cells were washed once with SFM and then incubated for 1–2 h in SFM. A serial dilution of compound and/or NT was added, and the cells were incubated for 15 min (agonism experiments) or 1 h (antagonism). […] Cells were washed 6× with WB, and then, levels of phosphorylation were quantified using SuperSignal ELISA Pico Chemiluminescent Substrate (Thermo Scientific). […] IC50 is calculated for 5c(ii) using the {inhibitor} vs response – variable slope (four parameters) function in GraphPad Prism 10.2.

[2] = system: pMAPK in PC12 (TrkA+) cells; test: ELFI, pMAPK signaling in PC12 cells, competition with NT; type: cell-based, rat; conditions: competed with 10 ng/mL NT, 1 h
Description: as §1, §2

[3] = system: pAKT in PC12 (TrkA+) cells; test: ELFI, pAKT signaling in PC12 cells, competition with NT; type: cell-based, rat; conditions: competed with 10 ng/mL NT, 1 h
Description: as §1, §2

pMAPK in NIH+C cells = test: ELFI, pMAPK signaling in NIH+C cells, competition with NT; type: cell-based; conditions: competed with 10 ng/mL NT, 1 h
Description: as §1, §2

[4] = target: TrkA-expressing cells (HeLa+A) (UniProt P04629); test: Cell survival assay in serum-free media, TrkA-expressing cells (HeLa+A); type: cell-based; conditions: Figure 8 summary
Description: Cells were seeded at a density of 2 × 10^3 cells/well in complete media in 96-well plates and incubated for 24 h to allow cells to adhere. Cells were washed with DPBS, and then, media were swapped for serum-free media of the same type as the complete media. […] Cells were suspended and live cells counted using flow cytometry (CytoFLEX LX).

[5] = system: primary adult cortical neurons; test: Primary adult cortical neuron assay (neurite outgrowth and survival); type: cell-based, mouse; conditions: 5 μM, neurons from 6-week-old male mice
Text: We next decided to test the effects of 5c(ii) on primary mouse adult cortical neurons. These neurons naturally express TrkA[84] and therefore provide a more clinically relevant substrate to test compound leads in than analogous Trk-expressing transfectants. In addition, using neurons extracted from adult mice provide increased relevance to neurodegenerative and other nervous-system related diseases and injury, since most of these primarily occur in adult populations.[85],[86] To determine any potential for preclinical applications, 5c(ii) (5 μM) was incubated with primary cortical neurons from 6-week-old male mice at the time of plating, and neuronal survival and neurite outgrowth were quantified.
Figure 7 5c(ii) promotes neuroprotection. Primary adult cortical neurons were extracted from 6-week-old male mice and plated on 384-well PDL-coated plastic bottom plates at 10,000 cells/well. 5c(ii) at 5 μM concentration was added at the time of plating. 48 h after plating, the cells were fixed to conduct immunocytochemistry. Graph represents the mean ± SEM of (a) total neurite outgrowth per cell and (b) number of valid neurons per well. Representative images of cortical neurons treated with (c) vehicle and (d) 5 μM 5c(ii). Student’s t test. N = 3–5. *p < 0.05.
Cortical neuron assay was conducted as previously described.[85] Briefly, wild-type 6-week-old C57Bl/6 male mice were euthanized using CO2, and the brains were removed. The cortex was isolated and transferred to a MACS C-tube and then dissociated using the Miltenyi gentleMACS octo-dissociator on a preset protocol designed for adult rodent brains. […] Images were quantified using the Neurite Outgrowth Analysis Module in MetaXpress 6 software (Molecular Devices). For quantification, the number of valid neurons is determined by quantifying the number of TUBB3^+/DAPI^+ cells in a well with ≥10 μm of total neurite outgrowth. Total neurite outgrowth is determined by dividing the length of all neurites in a well by the number of valid neurons in that respective well. […]

[6] = set-up: method as in PMID 34451801; conditions: lack of selectivity; cited from earlier work

Chain of TrkB-expressing cells (HEK+B) (Q16620 32-822): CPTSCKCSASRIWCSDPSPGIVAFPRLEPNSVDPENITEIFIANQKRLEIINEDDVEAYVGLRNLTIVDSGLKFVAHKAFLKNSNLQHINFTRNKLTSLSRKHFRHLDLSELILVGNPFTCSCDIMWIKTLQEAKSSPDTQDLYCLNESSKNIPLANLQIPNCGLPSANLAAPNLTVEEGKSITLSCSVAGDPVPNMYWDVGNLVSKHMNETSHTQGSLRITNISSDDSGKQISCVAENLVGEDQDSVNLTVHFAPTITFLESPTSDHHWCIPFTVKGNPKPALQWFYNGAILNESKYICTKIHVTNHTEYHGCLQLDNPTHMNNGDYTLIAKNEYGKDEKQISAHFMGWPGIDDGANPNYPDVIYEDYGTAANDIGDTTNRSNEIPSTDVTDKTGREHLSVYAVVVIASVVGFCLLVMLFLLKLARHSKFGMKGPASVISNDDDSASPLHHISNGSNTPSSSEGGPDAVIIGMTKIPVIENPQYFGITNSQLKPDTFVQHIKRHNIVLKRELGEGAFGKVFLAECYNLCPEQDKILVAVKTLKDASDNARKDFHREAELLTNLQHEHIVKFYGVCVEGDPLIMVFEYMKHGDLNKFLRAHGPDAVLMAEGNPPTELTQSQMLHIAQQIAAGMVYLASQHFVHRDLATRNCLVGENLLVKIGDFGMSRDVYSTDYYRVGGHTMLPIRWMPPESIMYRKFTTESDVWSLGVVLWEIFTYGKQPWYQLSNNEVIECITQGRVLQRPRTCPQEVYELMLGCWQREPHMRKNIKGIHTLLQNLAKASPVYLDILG
Chain of TrkA-expressing cells (HeLa+A) (P04629 33-796): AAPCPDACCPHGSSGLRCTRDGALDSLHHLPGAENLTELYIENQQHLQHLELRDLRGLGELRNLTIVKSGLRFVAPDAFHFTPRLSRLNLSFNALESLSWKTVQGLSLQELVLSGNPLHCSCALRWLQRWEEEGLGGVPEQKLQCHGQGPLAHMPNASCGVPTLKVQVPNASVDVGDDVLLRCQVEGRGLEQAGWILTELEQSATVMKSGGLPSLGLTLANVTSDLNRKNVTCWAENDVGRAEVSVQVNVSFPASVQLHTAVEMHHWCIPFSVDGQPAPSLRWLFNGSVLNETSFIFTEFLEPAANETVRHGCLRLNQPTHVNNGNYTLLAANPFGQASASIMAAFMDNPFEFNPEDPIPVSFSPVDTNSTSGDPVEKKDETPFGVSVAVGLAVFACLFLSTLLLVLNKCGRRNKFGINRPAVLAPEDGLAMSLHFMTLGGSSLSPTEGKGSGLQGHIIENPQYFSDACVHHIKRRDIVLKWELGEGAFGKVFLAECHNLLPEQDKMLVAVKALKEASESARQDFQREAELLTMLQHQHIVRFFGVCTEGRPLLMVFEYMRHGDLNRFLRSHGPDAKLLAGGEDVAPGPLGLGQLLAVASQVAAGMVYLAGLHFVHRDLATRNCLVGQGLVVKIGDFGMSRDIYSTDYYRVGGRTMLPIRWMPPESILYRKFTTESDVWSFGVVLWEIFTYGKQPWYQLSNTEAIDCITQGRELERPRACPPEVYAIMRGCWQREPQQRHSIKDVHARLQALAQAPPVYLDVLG

**Q.** What does the source list for `COc1ccc(C2=C3C=C(S(=O)(=O)O)C4=[N+]3[B-](F)(F)n3c2cc(S(=O)(=O)O)c3SC[C@@H](C(N)=O)NC(=O)CNC(=O)[C@H](CO)NC(=O)[C@H](CCSC)NC(=O)[C@H](CC(=O)O)NC(=O)[C@@H](NC(C)=O)CS4)cc1` [5b(i)] (Ac-CDMSGC-NH2; linker 1-6 via X2)?
**A.** Kd (TrkB (HEK293-TrkB cells)): 73 ± 13 nM; EC50 ([1]; cell survival with 0.6 nM BDNF, read-out: EC50 (μM) with suboptimal neurotrophin): 1.8 µM; EC50 ([1]; dose-dependent cell survival without NT, read-out: EC50): 0.4 µM

**Q.** With `COc1ccc(C2=C3C=C(S(=O)(=O)O)C4=[N+]3[B-](F)(F)n3c2cc(S(=O)(=O)O)c3SC[C@H](NC(C)=O)C(=O)N[C@@H]([C@@H](C)O)C(=O)N[C@@H](CCC(N)=O)C(=O)N[C@@H](CC(N)=O)C(=O)N[C@@H](CO)C(=O)N[C@H](C(N)=O)CS4)cc1` [5c(ii)] (Ac-CTQNSC-NH2; linker 1-6 via X1; N-terminus and C-terminus assumed) as the compound, how does the IC50 (pAKT in NIH+C cells) read?
**A.** 7 µM

**Q.** What about the IC50 [2] of the same compound?
**A.** 7 µM

**Q.** And the IC50 [3]?
**A.** 7 µM

**Q.** And the IC50 (pMAPK in NIH+C cells)?
**A.** 35 µM

**Q.** What about the “result (Trk activity assigned)” value [4] of the same compound?
**A.** TrkA modulator

**Q.** What about the “change in neurite outgrowth” value ([5]; 48 h) of the same compound?
**A.** no significant change

**Q.** What about the “increase in the number of valid neurons” value ([5]; after 48 h, vs vehicle) of the same compound?
**A.** over 50%

**Q.** With `O=c1cc(-c2ccccc2)oc2c(O)c(O)ccc12` [7,8-DHF, 7,8-Dihydroxyflavone] as the compound, how does the “number of targets bound” value [6] read?
**A.** 133
